From patent US20100120789A1, “Compound” (priority 2005, published 2010)

Tests used:
Human 11β-HSD1 [1] = molecular target: T1, Human 11β-HSD1 (Homo sapiens, UniProt P28845); assay: 11β-HSD1 HEK assay (whole HEK 293 cells stably transfected with HSD11B1, SPA); assay type: cell-based; parameters: expressed in transfected cells; host or cells: HEK 293; conditions: for inhibition at 10 µM: HEK293, read-out: % INHIBITION of Human 11 β-HSD1 at 10 μM (HEK); for IC50: HEK293, read-out: IC50 (nM) Inhibition of Human 11β-HSD1 (HEK293)
Method: 11β-HSD1 HEK Assay Protocol (Cell Based Assay)
11β-HSD1 activity is measured in whole HEK 293 cells stably transfected with the HSD11B1 gene. Cells are incubated in 96-well microplates in the presence of tritiated substrate. Enzyme activity is determined by measuring the amount of tritated product by scintillation proximity assay (SPA). Assay plates contain internal high and low controls to allow calculation of percentage inhibition.
2. When the cells are 80% confluent the medium is removed from each well. 100 μl fresh, serum-free, medium containing ^3H-cortisone and test compound in 1% DMSO is added to each well*. Control wells are also dispensed.
3. The plate is incubated at […] for the required time period.
4. 50 μl of media is removed from each well and transferred to a microplate containing 100 μl of a pre-incubated mixture of anti-cortisol antibody and SPA bead. The mixture is incubated with gentle shaking until equilibrium is reached, before transferring to a scintillation counter to establish the enzyme activity in each sample.
10 μl of compound is dispensed into each well of a 96-well microplate in 10% DMSO at 100 μM concentration. 90 μl media containing ^3H-cortisone is added to each well. The compound/media/substrate mixture is then transferred to the assay plate containing the cells.

Human 11β-HSD1 [2] = molecular target: T1, Human 11β-HSD1; assay: 11β-HSD1 HTRF assay (human liver microsome fractions, cortisol by HTRF); assay type: biochemical; conditions: 10 μM compound; human liver microsomes
Method: 11β-HSD1 HTRF Assay Protocol
The 11β-HSD Type 1 assay was carried out at room temperature in 96 well microtitre plates in a total volume of 40 μl. Assay buffer contained 30 mM Tris.HCl, 1 mM EDTA, pH 7.2. Inhibitor compounds were tested at varying concentrations at a final Dimethyl Sulphoxide concentration of 1%. Compounds were usually tested at 10 μM. The substrate mixture contained cortisone, NADPH and glucose-6-phosphate at final concentrations of 1 μM, 180 μM and 1 mM respectively. Assays were started by the addition of 10p1 human liver microsome fractions, 20 mg per ml protein, containing 11β-HSD Type 1, diluted 1 to 40 prior to use. Following mixing microtitre plates were shaken for 30 minutes. Reactions were stopped by the addition of 10 μl 1 mM Glyccheritinnic acid solution. Production of Cortisol was measured by Homogenous Time Resolved Fluorescence using a cortisol assay kit; Cisbio International Cortisol HTRF kit (62CORPEB), following the manufacturer's protocol.

T1 sequence (P28845 whole entry): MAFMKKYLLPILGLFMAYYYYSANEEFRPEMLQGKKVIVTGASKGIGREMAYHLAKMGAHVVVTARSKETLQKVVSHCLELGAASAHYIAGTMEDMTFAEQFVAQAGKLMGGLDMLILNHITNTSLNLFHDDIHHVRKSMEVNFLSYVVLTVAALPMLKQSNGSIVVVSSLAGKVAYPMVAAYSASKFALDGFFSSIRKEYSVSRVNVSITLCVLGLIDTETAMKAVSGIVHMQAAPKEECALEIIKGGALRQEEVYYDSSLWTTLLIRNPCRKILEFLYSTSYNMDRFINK

| Compound | inhibition at 10 µM (Human 11β-HSD1 [1]) [%] | inhibition at 10 µM (Human 11β-HSD1 [2]) [%] | IC50 (Human 11β-HSD1 [1]) [nM] |
| --- | --- | --- | --- |
| O=C(CSCc1ccc(Cl)cc1)C12CC3CC(CC(C3)C1)C2 [compound 1621] | > 60 | > 60 |  |
| O=S(=O)(NC1C2CC3CC(C2)CC1C3)c1cccs1 (stereo not shown) [compound 1574] | 20 to 60 | > 60 |  |
| Cn1cnc(CNC(=O)C23CC4CC(CC(C4)C2)C3)c1 [compound 1577] | > 60 | > 60 |  |
| O=C(COc1ccc(-c2ccccc2)cc1)C12CC3CC(CC(C3)C1)C2 [compound 1567] | > 60 | > 60 |  |
| Cc1nc2cc(NCC(=O)C34CC5CC(CC(C5)C3)C4)ccc2s1 [compound 1487] | > 60 | > 60 |  |
| O=C(NCCc1ccccn1)C12CC3CC(CC(C3)C1)C2 [compound 1541] | > 60 | > 60 |  |
| O=S(=O)(Cc1ccc(Cl)cc1)NC12CC3CC(CC(C3)C1)C2 [compound 1499] | < 20 | 20 to 60 |  |
| Cn1cccc1CNC(=O)C12CC3CC(CC(C3)C1)C2 [compound 1578] | > 60 | > 60 |  |
| CC(=O)Nc1ccc(OCC(=O)C23CC4CC(CC(C4)C2)C3)cc1 [compound 1569] | > 60 | > 60 |  |
| O=C(NCCc1cccs1)C12CC3CC(CC(C3)C1)C2 [compound 1375] | > 60 | > 60 |  |
| Cc1ccc(-c2noc(C34CC5CC(CC(C5)C3)C4)n2)cc1 [compound 1599] | 20 to 60 | 20 to 60 |  |
| O=C(CC12CC3CC(CC(C3)C1)C2)NCCc1cccs1 [compound 1570] | > 60 | > 60 |  |
| CCCc1ccc(S(=O)(=O)NCC23CC4CC(CC(C4)C2)C3)cc1 [compound 1368] | 20 to 60 | > 60 |  |
| O=C(CNc1ccc(Cl)cc1)C12CC3CC(CC(C3)C1)C2 [compound 1535] | > 60 | > 60 |  |
| O=S(=O)(NC12CC3CC(CC(C3)C1)C2)c1cccs1 [compound 1573] |  | > 60 |  |
| O=C(C[S+]([O-])Cc1ccc(Cl)cc1)C12CC3CC(CC(C3)C1)C2 (stereo not shown) [compound 1628] | > 60 | > 60 |  |
| O=C(NCCN1CCCCC1)C12CC3CC(CC(C3)C1)C2 [compound 1598] | > 60 | > 60 |  |
| O=C(CC12CC3CC(CC(C3)C1)C2)NCc1ccccn1 [compound 1565] | 20 to 60 | > 60 |  |
| Cc1ccc(S(=O)(=O)CC(=O)C23CC4CC(CC(C4)C2)C3)cc1 [compound 1562] | > 60 | > 60 |  |
| CCCc1ccc(S(=O)(=O)NC23CC4CC(CC(C4)C2)C3)cc1 [compound 1341] | 20 to 60 | 20 to 60 |  |
| O=C(NCc1ccccn1)C12CC3CC(CC(C3)C1)C2 [compound 1540] | 20 to 60 | > 60 |  |
| Cc1nc2c(NC(=O)CC34CC5CC(CC(C5)C3)C4)c(C)ccc2s1 [compound 1572] | < 20 | > 60 |  |

| Compound | inhibition at 10 µM (Human 11β-HSD1 [1]) [%] | inhibition at 10 µM (Human 11β-HSD1 [2]) [%] | IC50 (Human 11β-HSD1 [1]) [nM] |
| --- | --- | --- | --- |
| CN(Cc1cccs1)C(=O)C12CC3CC(CC(C3)C1)C2 [compound 1576] |  | > 60 |  |
| O=C(COc1ccc(Cl)cc1)C12CC3CC(CC(C3)C1)C2 [compound 1610] | > 60 | > 60 |  |
| O=C(CS(=O)(=O)Cc1ccc(Cl)cc1)C12CC3CC(CC(C3)C1)C2 [compound 1632] | > 60 | > 60 |  |
| O=C(NCCc1cccnc1)C12CC3CC(CC(C3)C1)C2 [compound 1543] | < 20 | > 60 |  |
| Cc1cnc(CNC(=O)C23CC4CC(CC(C4)C2)C3)cn1 [compound 1545] | 20 to 60 | > 60 |  |
| O=C(CSc1cc(Cl)ccc1Cl)C12CC3CC(CC(C3)C1)C2 [compound 1538] | > 60 | > 60 |  |
| Cc1ccc(OCC(=O)C23CC4CC(CC(C4)C2)C3)cc1 [compound 1619] | > 60 | > 60 |  |
| O=C(NCCCn1ccnc1)C12CC3CC(CC(C3)C1)C2 [compound 1580] | 20 to 60 | 20 to 60 |  |
| O=C(COCc1ccc(Cl)cc1)C12CC3CC(CC(C3)C1)C2 [compound 1626] | 20 to 60 | > 60 |  |
| CNC(=O)c1ccc(COCC(=O)C23CC4CC(CC(C4)C2)C3)cc1 [Compound 18] |  |  | 250 |
| CC(C(=O)NCc1cccs1)(c1ccccc1)c1ccccc1 [compound 1640] | 20 to 60 |  |  |
| O=C(CS(=O)(=O)c1ccc(Cl)cc1)C12CC3CC(CC(C3)C1)C2 [compound 1539] | 20 to 60 | > 60 |  |
| O=C(NCCc1cccs1)C12CC3CC(CC(O)(C3)C1)C2 [compound 1676] | > 60 |  |  |
| O=S(=O)(Cc1cccc(Cl)c1)NC12CC3CC(CC(C3)C1)C2 [compound 1500] | < 20 | 20 to 60 |  |
| CC(C)NC(=O)c1cccc(OCC(=O)C23CC4CC(CC(C4)C2)C3)c1 [Compound 12] |  |  | 1220 |
| CN(Cc1cccs1)C(=O)C1(c2ccc(Cl)cc2)CCCC1 [compound 1696] | > 60 |  |  |
| CC1(C(=O)NCc2cccs2)CCCCC1 [compound 1642] | 20 to 60 |  |  |
| CN(Cc1cccs1)C(=O)C1(C)CCCCC1 [compound 1699] | > 60 |  |  |
| CN(Cc1cccs1)C(=O)CC(C)(C)C [compound 1694] | > 60 |  |  |
| O=C(COc1cc(Cl)ccc1Cl)C12CC3CC(CC(C3)C1)C2 [compound 1618] | > 60 | > 60 |  |
| O=C(NCc1cccs1)C12CC3CC(CC1C3)C2 [compound 1648] | > 60 |  |  |
| CN(Cc1cccs1)C(=O)[C@H]1CC2C=CC1C2 (stereo partly shown) [compound 1709] | > 60 |  |  |

| Compound | inhibition at 10 µM (Human 11β-HSD1 [1]) [%] | inhibition at 10 µM (Human 11β-HSD1 [2]) [%] | IC50 (Human 11β-HSD1 [1]) [nM] |
| --- | --- | --- | --- |
| COc1ccc(OCC(=O)C23CC4CC(CC(C4)C2)C3)cc1OC [compound 1568] | > 60 | > 60 |  |
| Cc1nc2c(Cl)c(NC(=O)C34CC5CC(CC(C5)C3)C4)ccc2s1 [compound 1373] | > 60 | 20 to 60 |  |
| CN(Cc1cccs1)C(=O)C1CCCCC1 [compound 1693] | > 60 |  |  |
| CC(C(=O)NCCc1cccs1)(c1ccccc1)c1ccccc1 [compound 1650] | < 20 |  |  |
| CC(C)(C)C(=O)NCc1cccs1 [compound 1673] | 20 to 60 |  |  |
| Clc1ccc(-c2noc(C34CC5CC(CC(C5)C3)C4)n2)cc1 [compound 1627] |  | 20 to 60 |  |
| CC12CC3CC(C)(C1)CC(C(=O)NCc1cccs1)(C3)C2 [compound 1671] | > 60 |  |  |
| O=C(NCc1cccs1)NC12CC3CC(CC(C3)C1)C2 [compound 1713] | 20 to 60 |  |  |
| O=C(NCCc1cccs1)NC12CC3CC(CC(C3)C1)C2 [compound 1714] | > 60 |  |  |
| Cc1nc2cc(NC(=O)CC34CC5CC(CC(C5)C3)C4)ccc2s1 [compound 1566] | 20 to 60 |  |  |
| O=C(N1CCc2sccc2C1)C12CC3CC(CC(C3)C1)C2 [compound 1721] | > 60 |  |  |
| O=C(CC12CC3CC(CC(C3)C1)C2)NCc1cc2ccccc2s1 [compound 1690] | 20 to 60 |  |  |
| O=C(CC12CC3CC(CC(C3)C1)C2)NCc1ccco1 [compound 1662] | > 60 |  |  |
| Cn1cccc1CNC(=O)CC12CC3CC(CC(C3)C1)C2 [compound 1663] | > 60 |  |  |
| NC(=O)c1cccc(OCC(=O)C23CC4CC(CC(C4)C2)C3)c1 [Compound 9] |  |  | 1050 |
| CC(C)(C)CC(=O)NCCc1cccs1 [compound 1652] | 20 to 60 |  |  |
| CN(Cc1cccs1)C(=O)C(C)(c1ccccc1)c1ccccc1 [compound 1698] | 20 to 60 |  |  |
| O=C(NC12CC3CC(CC(C3)C1)C2)OCCc1cccs1 [compound 1712] | > 60 |  |  |
| O=C(NCc1cccs1)[C@H]1CC2C=CC1C2 (stereo partly shown) [compound 1706] | 20 to 60 |  |  |
| O=C(NCc1cccs1)C1CCCCC1 [compound 1638] | 20 to 60 |  |  |
| CC1(C(=O)NCCc2cccs2)CCCCC1 [compound 1655] | > 60 |  |  |
| O=C(NCCc1cccs1)[C@@H]1CC2C=CC1C2 (stereo partly shown) [compound 1708] | 20 to 60 |  |  |
